Patent US11267825B2 (AICURIS GMBH & CO. KG, priority 2017, dated 2022)

How the values were obtained:
HBV = assay: Determination of HBV DNA from the supernatants of HepAD38 cells (anti-HBV activity); type: cell-based, hepatitis B virus; details: Hepatitis B virus, 144 h; HBV DNA in HepAD38 supernatant at day 6; read-out: Cell Activity (EC50)
How it was run: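 HepAD38 cells (60,000/well) were treated with half-log compound dilutions in tetracycline-free medium to induce HBV production. On day 6, HBV DNA was purified from filtered supernatant and quantified by real-time PCR against plasmid standards. EC50 values came from non-linear regression of relative copy numbers, typically from three experiments in triplicate.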

HBV core protein = HBV core protein (UniProt P03146); type: biochemical; details: read-out: Assembly Activity (IC50); BODIPY-FL labelled core protein, assembly started with NaCl, read after 6 min
Sequence of HBV core protein (P03146 whole entry, looked up): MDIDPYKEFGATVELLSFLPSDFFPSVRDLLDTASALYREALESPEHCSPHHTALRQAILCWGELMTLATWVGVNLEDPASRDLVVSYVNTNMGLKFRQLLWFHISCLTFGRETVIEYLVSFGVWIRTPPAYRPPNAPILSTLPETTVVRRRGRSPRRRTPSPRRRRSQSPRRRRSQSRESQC
How it was run: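 Fluorescence-quenching assembly assay using E. coli-expressed core protein 1–149 plus Cys150, labelled with BODIPY-FL maleimide, at 1.0–2.0 μM in 50 mM HEPES pH 7.5, 0.5% DMSO. Assembly started with NaCl to […]; fluorescence (ex 477/em 525 nm) read after 6 min. EC50 by non-linear regression, 8-point 0.5-log dilutions.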

SMILES | EC50 (HBV) [µM] | IC50 (HBV core protein) [µM]
O=C(c1cc2ccccc2[nH]1)N1CCc2nc(NCC(O)CO)sc2C1 (stereo not shown) [Example 208, 3-{[5-(1H-indole-2-carbonyl)-4H,5H,6H,7H-[1,3]thiazolo[5,4-c]pyridin-2-yl]amino}propane-1,2-diol] | < 1 | < 5
CC1(C)OCC(CNc2nc3c(s2)CN(C(=O)c2cc4ccccc4[nH]2)CC3)O1 (stereo not shown) [Example 205, N-[(2,2-dimethyl-1,3-dioxolan-4-yl)methyl]-5-(1H-indole-2-carbonyl)-4H,5H,6H,7H-[1,3]thiazolo[5,4-c]pyridin-2-amine] | < 1 | 5 to 10
Cc1nc2c(s1)CN(C(=O)c1cc3c(F)cc(Cl)cc3[nH]1)CC2 [Example 165] | 1 to 10 | < 5
O=C(c1cc2ccccc2[nH]1)N1CCc2nc(NCC3CCNC3)sc2C1 (stereo not shown) [Example 389, 5-(1H-indole-2-carbonyl)-N—[(pyrrolidin-3-yl)methyl]-4H,5H,6H,7H-[1,3]thiazolo[5,4-c]pyridin-2-amine] | 1 to 10 | < 5
CC(C)(C)CC(=O)Nc1nc2c(s1)CN(C(=O)c1cc3ccccc3[nH]1)CC2 [Example 26, N-[5-(1H-indole-2-carbonyl)-4H,5H,6H,7H-[1,3]thiazolo[5,4-c]pyridin-2-yl]-3,3-dimethylbutanamide] | < 1 | 5 to 10
O=C(c1cc2c(Cl)cccc2[nH]1)N1CCc2nc(NCC3(O)CCC3)sc2C1 [Example 311, 1-({[5-(4-chloro-1H-indole-2-carbonyl)-4H,5H,6H,7H-[1,3]thiazolo[5,4-c]pyridin-2-yl]amino}methyl)cyclobutan-1-ol] | < 1 | < 5
O=C(c1cc2c(F)c(F)c(F)cc2[nH]1)N1CCc2nc(NCC3CCOC3)sc2C1 (stereo not shown) [Example 105, 5-(4,5,6-trifluoro-1H-indole-2-carbonyl)-N-[(oxolan-3-yl)methyl]-4H,5H,6H,7H-[1,3]thiazolo[5,4-c]pyridin-2-amine] | < 1 | < 5
O=C(c1cc2c(CO)cccc2[nH]1)N1CCc2nc(NCC3CCOC3)sc2C1 (stereo not shown) [Example 245, [2-(2-{[(oxolan-3-yl)methyl]amino}-4H,5H,6H,7H-[1,3]thiazolo[5,4-c]pyridine-5-carbonyl)-1H-indol-4-yl]methanol] | < 1 | < 100
N#Cc1cccc2[nH]c(C(=O)N3CCc4nc(N)sc4C3)cc12 [Example 83, 5-(4-cyano-1H-indole-2-carbonyl)-4H,5H,6H,7H-[1,3]thiazolo[5,4-c]pyridin-2-amine] | 1 to 10 | < 5
O=C(c1cc2ccccc2[nH]1)N1CCc2nc(NCC3CCCOC3)sc2C1 (stereo not shown) [Example 270, 5-(1H-indole-2-carbonyl)-N-[(oxan-3-yl)methyl]-4H,5H,6H,7H-[1,3]thiazolo[5,4-c]pyridin-2-amine] | < 1 | < 5
CC(CO)CNc1nc2c(s1)CN(C(=O)c1cc3ccccc3[nH]1)CC2 (stereo not shown) [Example 217, 3-{[5-(1H-indole-2-carbonyl)-4H,5H,6H,7H-[1,3]thiazolo[5,4-c]pyridin-2-yl]amino}-2-methylpropan-1-ol] | < 1 | < 5
Nc1nc2c(s1)CN(C(=O)c1cc3c(C(F)F)ccc(F)c3[nH]1)CC2 [Example 341, 5-[4-(difluoromethyl)-7-fluoro-1H-indole-2-carbonyl]-4H,5H,6H,7H-[1,3]thiazolo[5,4-c]pyridin-2-amine] | 1 to 10 | < 5
CN(C)c1nc2c(s1)CN(C(=O)c1cc3c(Cl)cc(F)cc3[nH]1)CC2 [Example 209, 5-(4-chloro-6-fluoro-1H-indole-2-carbonyl)-N,N-dimethyl-4H,5H,6H,7H-[1,3]thiazolo[5,4-c]pyridin-2-amine] | 1 to 10 | 5 to 10
Cc1cccc2[nH]c(C(=O)N3CCc4nc(N(C)C)sc4C3)cc12 [Example 88, N,N-dimethyl-5-(4-methyl-1H-indole-2-carbonyl)-4H,5H,6H,7H-[1,3]thiazolo[5,4-c]pyridin-2-amine] | 1 to 10 | < 100
NCc1nc2c(s1)CN(C(=O)c1cc3ccccc3[nH]1)CC2 [Example 18, [5-(1H-indole-2-carbonyl)-4H,5H,6H,7H-[1,3]thiazolo[5,4-c]pyridin-2-yl]methanamine] | 1 to 10 | < 100
Cc1cc(C)c2[nH]c(C(=O)N3CCc4nc(N)sc4C3)cc2c1 [Example 137, 5-(5,7-dimethyl-1H-indole-2-carbonyl)-4H,5H,6H,7H-[1,3]thiazolo[5,4-c]pyridin-2-amine] | < 100 | < 100

SMILES | EC50 (HBV) [µM] | IC50 (HBV core protein) [µM]
O=C(c1cc2ccccc2[nH]1)N1CCc2nc(NCC3CNCCO3)sc2C1 (stereo not shown) [Example 260, 5-(1H-indole-2-carbonyl)-N—[(morpholin-2-yl)methyl]-4H,5H,6H,7H-[1,3]thiazolo[5,4-c]pyridin-2-amine] | 1 to 10 | < 5
CC1(CNc2nc3c(s2)CN(C(=O)c2cc4ccccc4[nH]2)CC3)CCOC1 (stereo not shown) [Example 49, 5-(1H-indole-2-carbonyl)-N-[(3-methyloxolan-3-yl)methyl]-4H,5H,6H,7H-[1,3]thiazolo[5,4-c]pyridin-2-amine] | < 1 | < 5
O=C(c1cc2ccccc2[nH]1)N1CCc2nc(NC[C@H]3C[C@@H]4CC[C@H]3O4)sc2C1 (racemic) [Example 34, (+/−)-cis-5-(1H-indole-2-carbonyl)-N-{1[(1R,2R,4S)-7-oxabicyclo[2.2.1]heptan-2-yl]methyl}-4H,5H,6H,7H-[1,3]thiazolo[5,4-c]pyridin-2-amine] | < 1 | < 5
Nc1nc2c(s1)CN(C(=O)c1cc3c(Br)ccc(O)c3[nH]1)CC2 [Example 93, 2-{2-amino-4H,5H,6H,7H-[1,3]thiazolo[5,4-c]pyridine-5-carbonyl}-4-bromo-1H-indol-7-ol] | < 100 | < 100
CS(=O)(=O)CCNc1nc2c(s1)CN(C(=O)c1cc3ccccc3[nH]1)CC2 [Example 89, 5-(1H-indole-2-carbonyl)-N-(2-methanesulfonylethyl)-4H,5H,6H,7H-[1,3]thiazolo[5,4-c]pyridin-2-amine] | < 1 | < 5
O=C1CCC(CNc2nc3c(s2)CN(C(=O)c2cc4ccccc4[nH]2)CC3)N1 (stereo not shown) [Example 404, 5-({[5-(1H-indole-2-carbonyl)-4H,5H,6H,7H-[1,3]thiazolo[5,4-c]pyridin-2-yl]amino}methyl)pyrrolidin-2-one] | < 1 | < 5
O=C(c1cc2ccccc2[nH]1)N1CCc2nc(NCC(CO)CC3CCOCC3)sc2C1 (stereo not shown) [Example 226, 3-{[5-(1H-indole-2-carbonyl)-4H,5H,6H,7H-[1,3]thiazolo[5,4-c]pyridin-2-yl]amino}-2-[(oxan-4-yl)methyl]propan-1-ol] | < 1 | < 5
CC(O)CNc1nc2c(s1)CN(C(=O)c1cc3c(Cl)cc(F)cc3[nH]1)CC2 (stereo not shown) [Example 142, 1-{[5-(4-chloro-6-fluoro-1H-indole-2-carbonyl)-4H,5H,6H,7H-[1,3]thiazolo[5,4-c]pyridin-2-yl]amino}propan-2-ol] | < 1 | < 5
COC(=O)[C@@H]1C[C@H](Nc2nc3c(s2)CN(C(=O)c2cc4ccccc4[nH]2)CC3)CN1 [Example 289, Methyl (2S,4S)-4-{[5-(1H-indole-2-carbonyl)-4H,5H,6H,7H-[1,3]thiazolo[5,4-c]pyridin-2-yl]amino}pyrrolidine-2-carboxylate] | < 100 | < 5
NCCNc1nc2c(s1)CN(C(=O)c1cc3ccccc3[nH]1)CC2 [Example 179, N1-[5-(1H-indole-2-carbonyl)-4H,5H,6H,7H-[1,3]thiazolo[5,4-c]pyridin-2-yl]ethane-1,2-diamine] | 1 to 10 | 5 to 10
O=C(CNc1nc2c(s1)CN(C(=O)c1cc3ccccc3[nH]1)CC2)N1CCCCC1 [Example 233, 2-{[5-(1H-indole-2-carbonyl)-4H,5H,6H,7H-[1,3]thiazolo[5,4-c]pyridin-2-yl]amino}-1-(piperidin-1-yl)ethan-1-one] | 1 to 10 | < 100
Nc1nc2c(s1)CN(C(=O)c1cc3c(Cl)cc(Cl)cc3[nH]1)CC2 [Example 168, 5-(4,6-dichloro-1H-indole-2-carbonyl)-4H,5H,6H,7H-[1,3]thiazolo[5,4-c]pyridin-2-amine] | < 1 | < 5
CCc1cccc2[nH]c(C(=O)N3CCc4nc(NCC5CCOC5)sc4C3)cc12 (stereo not shown) [Example 115, 5-(4-ethyl-1H-indole-2-carbonyl)-N-[(oxolan-3-yl)methyl]-4H,5H,6H,7H-[1,3]thiazolo[5,4-c]pyridin-2-amine] | < 1 | < 5
CCc1cc(F)cc2[nH]c(C(=O)N3CCc4nc(N[C@H]5CC[C@@H](O)CC5)sc4C3)cc12 [Example 394, (1s,4s)-4-{[5-(4-ethyl-6-fluoro-1H-indole-2-carbonyl)-4H,5H,6H,7H-[1,3]thiazolo[5,4-c]pyridin-2-yl]amino}cyclohexan-1-ol] | < 1 | < 5
O=C(c1cc2ccccc2[nH]1)N1CCc2nc(NCC3(CO)CC3)sc2C1 [Example 87, [1-({[5-(1H-indole-2-carbonyl)-4H,5H,6H,7H-[1,3]thiazolo[5,4-c]pyridin-2-yl]amino}methyl)cyclopropyl]methanol] | < 1 | < 5
N#Cc1ccc(F)c2[nH]c(C(=O)N3CCc4nc(NCC5CCOC5)sc4C3)cc12 (stereo not shown) [Example 117, 7-fluoro-2-(2-{[(oxolan-3-yl)methyl]amino}-4H,5H,6H,7H-[1,3]thiazolo[5,4-c]pyridine-5-carbonyl)-1H-indole-4-carbonitrile] | 1 to 10 | < 100
